For experiment [1], the system named is H929 multiple myeloma tumour line. Description: In vitro cytotoxicity, Microculture Tetrazolium Assay. The class given is cell-based. To be noted: Homo sapiens, NCI-H929, 48 h, H929 cells, 48 hours exposure, MTT; read-out: IC50 (μM) MTT H929. The protocol: The cytotoxicity studies were carried out on the H929 multiple myeloma tumour line.
The cells are distributed onto microplates and exposed to the test compounds for 48 hours.

In a further experiment the target is Mcl-1 protein (UniProtKB primary accession number: Q07820) (Homo sapiens, UniProt Q07820). Description: Inhibition of Mcl-1 by fluorescence polarisation, Method 1. The class given is binding. To be noted: read-out: IC50 (M) Mcl-1 FP. A digest of the protocol: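 FP readout of relative binding potency. Mcl-1 5 nM final, fluorescein-labelled ligand 1 nM final; buffer 10 mM HEPES, 150 mM NaCl, 0.05% Tween 20, pH 7.4; 11-pt dilution series, 5% DMSO final.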
(In general: In fluorescence polarisation assays a small probe gives low polarisation when free and higher when bound to something large.)

Where [2] appears, read: fluorescence polarisation, Method 1, or Method 2.
[3] abbreviates: fluorescence polarisation test, Method 2 values are underlined in the patent (underlining not visible here).

Like-named read-outs stand apart in the source and are kept apart here.

Sequence of Mcl-1 protein (Q07820 whole entry): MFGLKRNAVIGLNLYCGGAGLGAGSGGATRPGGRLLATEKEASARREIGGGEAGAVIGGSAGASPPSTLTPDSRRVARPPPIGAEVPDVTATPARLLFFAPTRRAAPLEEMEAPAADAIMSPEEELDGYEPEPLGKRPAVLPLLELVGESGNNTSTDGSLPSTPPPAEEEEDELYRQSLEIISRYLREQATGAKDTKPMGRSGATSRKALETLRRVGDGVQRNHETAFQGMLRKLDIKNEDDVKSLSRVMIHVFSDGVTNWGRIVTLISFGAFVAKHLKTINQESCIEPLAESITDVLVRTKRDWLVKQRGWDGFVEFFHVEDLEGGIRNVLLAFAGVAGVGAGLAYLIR

Consider `COc1ccccc1-n1nccc1COc1ccccc1CC(Oc1ncnc2sc(-c3ccc(F)cc3)c(-c3ccc(OCCN4CCN(C)CC4)c(Cl)c3C)c12)C(=O)O` [Example 738, (2R)-2-{[(5Sa)-5-{3-chloro-2-methyl-4-[2-(4-methylpiperazin-1-yl)ethoxy]phenyl}-6-(4-fluorophenyl)thieno[2,3-d]pyrimidin-4-yl]oxy}-3-(2-{[1-(2-methoxyphenyl)-1H-pyrazol-5-yl]methoxy}phenyl)propanoic acid], for which the IC50 in experiment [1] came to 0.103 µM; on Mcl-1 protein (setting [2]), 3.78e-09 M.
On the same counts, the results for `CCCCn1nccc1COc1ccccc1CC(Oc1ncnc2sc(-c3ccc(OCCN4CCOCC4)cc3)c(-c3ccc(OCCN4CCN(C)CC4)c(Cl)c3C)c12)C(=O)O` [Example 616, (2R)-3-{2-[(1-butyl-1H-pyrazol-5-yl)methoxy]phenyl}-2-[((5Sa)-5-{3-chloro-2-methyl-4-[2-(4-methylpiperazin-1-yl)ethoxy]phenyl}-6-{4-[2-(morpholin-4-yl)ethoxy]phenyl}thieno[2,3-d]pyrimidin-4-yl)oxy]propanoic acid] are 0.07 µM and 4e-09 M.
On to `Cc1c(-c2c(-c3cccc(F)c3)sc3ncnc(OC(Cc4ccccc4OC(C)C)C(=O)O)c23)ccc(OCCN2CCN(C)CC2)c1Cl` [Example 709, (2R)-2-{[(5Sa)-5-{3-chloro-2-methyl-4-[2-(4-methylpiperazin-1-yl)ethoxy]phenyl}-6-(3-fluorophenyl)thieno[2,3-d]pyrimidin-4-yl]oxy}-3-[2-(propan-2-yloxy)phenyl]propanoic acid], for which the values for the IC50 (in experiment [1]; on Mcl-1 protein (setting [2])) were 0.518 µM and 3.2e-08 M, respectively.
With `Cc1cc(COc2ccccc2CC(Oc2ncnc3sc(-c4ccc(F)cc4)c(-c4ccc(OCCN5CCN(C)CC5)c(Cl)c4C)c23)C(=O)O)ccn1` [Example 16, (2R)-2-{[(5Sa)-5-{3-chloro-2-methyl-4-[2-(4-methylpiperazin-1-yl)ethoxy]phenyl}-6-(4-fluorophenyl)thieno[2,3-d]pyrimidin-4-yl]oxy}-3-{2-[(2-methylpyridin-4-yl)methoxy]phenyl}propanoic acid], the IC50 in experiment [1] is 0.095 µM; at Mcl-1 protein (setting [3]), 5.9e-09 M.
In the case of `Cc1c(-c2c(-c3ccc(F)o3)sc3ncnc(OC(Cc4ccccc4OCc4ccnn4CC4CC4)C(=O)O)c23)ccc(OCCN2CCN(C)CC2)c1Cl` [Example 186, (2R)-2-{[(5Sa)-5-{3-chloro-2-methyl-4-[2-(4-methylpiperazin-1-yl)ethoxy]phenyl}-6-(5-fluorofuran-2-yl)thieno[2,3-d]pyrimidin-4-yl]oxy}-3-(2-{[1-(cyclopropylmethyl)-1H-pyrazol-5-yl]methoxy}phenyl)propanoic acid], the concentration for half-maximal inhibition (IC50) worked out at 0.013 µM in experiment [1] and 4.3e-09 M at Mcl-1 protein (setting [3]).
`COc1ccccc1CC(Oc1ncnc2sc(-c3ccc(C)o3)c(-c3ccc(OCCN4CCN(C)CC4)c(Cl)c3C)c12)C(=O)O` [Example 541, (2R)-2-{[(5Sa)-5-{3-chloro-2-methyl-4-[2-(4-methylpiperazin-1-yl)ethoxy]phenyl}-6-(5-methylfuran-2-yl)thieno[2,3-d]pyrimidin-4-yl]oxy}-3-(2-methoxyphenyl)propanoic acid]: the values for the IC50 (in experiment [1]; on Mcl-1 protein (setting [2])) were 0.329 µM and 2.9e-08 M, respectively.
On to `Cc1sccc1-c1nccc(COc2ccccc2CC(Oc2ncnc3sc(-c4ccc(F)cc4)c(-c4ccc(OCCN5CCN(C)CC5)c(Cl)c4C)c23)C(=O)O)n1` [Example 121, (2R)-2-{[(5Sa)-5-{3-chloro-2-methyl-4-[2-(4-methylpiperazin-1-yl)ethoxy]phenyl}-6-(4-fluorophenyl)thieno[2,3-d]pyrimidin-4-yl]oxy}-3-(2-{[2-(2-methylthiophen-3-yl)pyrimidin-4-yl]methoxy}phenyl)propanoic acid], for which the IC50 was 0.015 µM in experiment [1] and 5.6e-09 M on Mcl-1 protein (setting [3]).
For `COc1ccccc1-c1nccc(COc2ccccc2CC(Oc2ncnc3sc(-c4ccc(Oc5ccccc5)cc4)c(-c4ccc(OCCN5CCN(C)CC5)c(Cl)c4C)c23)C(=O)O)n1` (single isomer, unassigned) [Example 759], the IC50 in experiment [1] came to 0.054 µM; on Mcl-1 protein (setting [2]), 9.06e-09 M.
With `Cc1c(-c2c(-c3ccco3)sc3ncnc(OC(Cc4ccccc4OC4CCN(C)C4)C(=O)O)c23)ccc(OCCN2CCN(C)CC2)c1Cl` [Example 214, (2R)-2-{[(5Sa)-5-{3-chloro-2-methyl-4-[2-(4-methylpiperazin-1-yl)ethoxy]phenyl}-6-(furan-2-yl)thieno[2,3-d]pyrimidin-4-yl]oxy}-3-{2-[(1-methylpyrrolidin-3-yl)oxy]phenyl}propanoic acid], the 50% inhibitory concentration (IC50) came to 0.897 µM in experiment [1] and 9.3e-09 M on Mcl-1 protein (setting [3]).
As to `CCCCn1nccc1COc1ccccc1CC(Oc1ncnc2sc(-c3ccc(CC)cc3)c(-c3ccc(OCCN4CCN(C)CC4)c(Cl)c3C)c12)C(=O)O` [Example 601, (2R)-3-{2-[(1-butyl-1H-pyrazol-5-yl)methoxy]phenyl}-2-{[(5Sa)-5-{3-chloro-2-methyl-4-[2-(4-methylpiperazin-1-yl)ethoxy]phenyl}-6-(4-ethylphenyl)thieno[2,3-d]pyrimidin-4-yl]oxy}propanoic acid], the IC50 was determined as 0.133 µM in experiment [1] and 1.2e-08 M on Mcl-1 protein (setting [2]).
As to `Cc1c(-c2c(-c3ccc(F)cc3)sc3ncnc(OC(Cc4ccccc4OCc4ccnc(C(C)C)n4)C(=O)O)c23)ccc(OCCN2CCN(C)CC2)c1Cl` [Example 24, (2R)-2-{[(5Sa)-5-{3-chloro-2-methyl-4-[2-(4-methylpiperazin-1-yl)ethoxy]phenyl}-6-(4-fluorophenyl)thieno[2,3-d]pyrimidin-4-yl]oxy}-3-(2-{[2-(propan-2-yl)pyrimidin-4-yl]methoxy}phenyl)propanoic acid], the IC50 in experiment [1] was 0.012 µM; at Mcl-1 protein (setting [3]), 8.1e-09 M.
As to `COc1cc(-c2sc3ncnc(OC(Cc4ccccc4OCC4CCCO4)C(=O)O)c3c2-c2ccc(OCCN3CCN(C)CC3)c(Cl)c2C)ccc1F` [Example 379, (2R)-2-{[(5Sa)-5-{3-chloro-2-methyl-4-[2-(4-methylpiperazin-1-yl)ethoxy]phenyl}-6-(4-fluoro-3-methoxyphenyl)thieno[2,3-d]pyrimidin-4-yl]oxy}-3-{2-[(2R)-tetrahydrofuran-2-ylmethoxy]phenyl}propanoic acid], the IC50 came to 0.174 µM in experiment [1] and 1.3e-08 M at Mcl-1 protein (setting [3]).
Taken in the same sequence, the figures for `Cc1c(-c2c(-c3ccco3)sc3ncnc(OC(Cc4ccccc4OCCOc4ccccc4)C(=O)O)c23)ccc(OCCN2CCN(C)CC2)c1Cl` [Example 291, (2R)-2-{[(5Sa)-5-{3-chloro-2-methyl-4-[2-(4-methylpiperazin-1-yl)ethoxy]phenyl}-6-(furan-2-yl)thieno[2,3-d]pyrimidin-4-yl]oxy}-3-[2-(2-phenoxyethoxy)phenyl]propanoic acid] were 1.3 µM and 3.8e-08 M.
On the same counts, the results for `COc1ccccc1CC(Oc1ncnc2sc(-c3ccco3)c(-c3ccc(OC4CCNC4)c(Cl)c3C)c12)C(=O)O` (single isomer, unassigned) [Example 305, (2R)-2-({(5Sa)-5-[3-chloro-2-methyl-4-((3S or R)-pyrrolidin-3-yloxy)phenyl]-6-(furan-2-yl)thieno[2,3-d]pyrimidin-4-yl}oxy)-3-(2-methoxyphenyl) propanoic acid] are 1.64 µM and 6.9e-08 M.
Take `CCn1nccc1COc1ccccc1CC(Oc1ncnc2sc(-c3ccc(F)o3)c(-c3ccc(OCCN(C)C)c(Cl)c3C)c12)C(=O)O` [Example 204, (2R)-2-{[(5Sa)-5-{3-chloro-4-[2-(dimethylamino)ethoxy]-2-methylphenyl}-6-(5-fluorofuran-2-yl)thieno[2,3-d]pyrimidin-4-yl]oxy}-3-{2-[(1-ethyl-1H-pyrazol-5-yl)methoxy]phenyl}propanoic acid]: the half-maximal inhibitory concentration (IC50) turned out to be 0.034 µM in experiment [1] and 4.9e-09 M at Mcl-1 protein (setting [3]).
Consider `Cc1c(-c2c(-c3ccco3)sc3ncnc(OC(Cc4ccccc4OCc4cccs4)C(=O)O)c23)ccc(OCCN2CCN(C)CC2)c1Cl` [Example 245, (2R)-2-{[(5Sa)-5-{3-chloro-2-methyl-4-[2-(4-methylpiperazin-1-yl)ethoxy]phenyl}-6-(furan-2-yl)thieno[2,3-d]pyrimidin-4-yl]oxy}-3-[2-(thiophen-2-ylmethoxy)phenyl]propanoic acid], for which the IC50 in experiment [1] turned out to be 0.099 µM; on Mcl-1 protein (setting [3]) it was 5.8e-09 M.
Regarding `Cc1c(-c2c(-c3ccco3)sc3ncnc(OC(Cc4ccccc4OCc4cc(-c5ccccc5)nn4C)C(=O)O)c23)ccc(OCCN2CCN(C)CC2)c1Cl` [Example 227, (2R)-2-{[(5Sa)-5-{3-chloro-2-methyl-4-[2-(4-methylpiperazin-1-yl)ethoxy]phenyl}-6-(furan-2-yl)thieno[2,3-d]pyrimidin-4-yl]oxy}-3-{2-[(1-methyl-3-phenyl-1H-pyrazol-5-yl)methoxy]phenyl}propanoic acid], the figures for the concentration for half-maximal inhibition (IC50) (in experiment [1]; at Mcl-1 protein (setting [3])) were 0.192 µM and 2e-08 M, respectively.
Turning to `COc1ccccc1-c1nccc(COc2ccccc2CC(Oc2ncnc3sc(-c4ccc(OCCN5CCOCC5)cc4)c(-c4ccc(OCCN5CCN(C)CC5)c(Cl)c4C)c23)C(=O)O)n1` (single isomer, unassigned) [Example 764], the IC50 turned out to be 0.019 µM in experiment [1] and 1.35e-09 M at Mcl-1 protein (setting [2]).
As to `CCCCCn1nccc1C(C)Oc1ccccc1CC(Oc1ncnc2sc(-c3ccc(F)cc3)c(-c3ccc(OCCN4CCN(C)CC4)c(Cl)c3C)c12)C(=O)O` (single isomer, unassigned) [Example 5, (2R)-2-{[(5Sa)-5-{3-chloro-2-methyl-4-[2-(4-methylpiperazin-1-yl)ethoxy]phenyl}-6-(4-fluorophenyl)thieno[2,3-d]pyrimidin-4-yl]oxy}-3-{2-[(1R or S)-1-(1-pentyl-1H-pyrazol-5-yl)ethoxy]phenyl}propanoic acid], the concentration for half-maximal inhibition (IC50) is 0.418 µM in experiment [1] and 6.2e-09 M on Mcl-1 protein (setting [3]).

The IC50 is the concentration that gives 50% inhibition.

The record behind these values is patent US9670227B2, “Thienopyrimidine derivatives, a process for their preparation and pharmaceutical compositions containing them” (LES LABORATOIRES SERVIER, priority 2013, dated 2017).
